Measured values from patent US12274709B2, “Dual-drug co-delivery system, preparation method therefor and use thereof” (Institute of Basic Medical Sciences Chinese Academy of …, priority 2019, dated 2025).
Where a name gives a salt, the structure may show the parent alone.

Assays:
Format in all cases: cell-based
MCF7 cells = assay: CCK8 cell viability, MCF7 cells; details: Homo sapiens, HHT 25 ng/mL, DOX 100 ng/mL (4:1)
Procedure: (§1) Cells in the Corning 96-well U plates were incubated for 24 h and then washed with PBS, 110 μL CCK8 dilution was added to each well and incubated for 2 h, and the absorbance values (OD) at wavelengths of 450 and 630 nm were measured using the microplate reader. The cell viability was calculated according to Formula 1.

[1] = test system: U937R (cytarabine-resistant strain, acute myeloid leukemia); assay: CCK8 cell viability, U937R cells; details: HHT 15 ng/mL, DOX 120 ng/mL (8:1)
Procedure: as §1

[2] = test system: HL60/A cells (HL60 cells resistant to Doxorubicin); assay: CCK8 cell viability, HL60/A cells; details: 24 h
Procedure: Taking HL60/A cells (HL60 cells resistant to Doxorubicin) as an example, the specific method was as follows:
as §1

HeLa cells = assay: CCK8 cell viability, HeLa cells; details: Homo sapiens, HHT 20 ng/mL, DOX 120 ng/mL (6:1)
Procedure: as §1

K562 cells = assay: CCK8 cell viability, K562 cells; details: Homo sapiens, HHT 25 ng/mL, DOX 375 ng/mL (15:1)
Procedure: as §1

| Compound | viability at 0.1 µg/mL (MCF7 cells) [%] | viability at 0.12 µg/mL [1] [%] | cytotoxicity against Doxorubicin-resistant strain HL60/A ([2]; DOX 200 ng/mL, FIG. 3) | viability at 0.12 µg/mL (HeLa cells) [%] | viability at 0.375 µg/mL (K562 cells) [%] | viability at 0.025 µg/mL (MCF7 cells) [%] | viability at 0.015 µg/mL [1] [%] | viability at 0.025 µg/mL ([2]; Homo sapiens, HL60/A cells, HHT 25 ng/mL, DOX 200 ng/mL (DOX:HHT 8:1), FIG. 3, system of Example 1) [%] | viability at 0.02 µg/mL (HeLa cells) [%] | viability at 0.025 µg/mL (K562 cells) [%] |
| --- | --- | --- | --- | --- | --- | --- | --- | --- | --- | --- |
| COc1cccc2c1C(=O)c1c(O)c3c(c(O)c1C2=O)C[C@@](O)(C(=O)CO)C[C@@H]3O[C@H]1C[C@H](N)[C@H](O)[C@H](C)O1 [DOX, Doxorubicin hydrochloride] | 92 | 55 | no cytotoxicity | 90 | 80 | – | – | – | – | – |
| COC(=O)C[C@](O)(CCCC(C)(C)O)C(=O)O[C@@H]1C(OC)=C[C@]23CCCN2CCc2cc4c(cc2[C@H]13)OCO4 [HHT, Homoharringtonine] | – | – | – | – | – | 50 | 59 | 56 | 41 | 59 |
